Assay results reported in patent US20240000758A1, “ELEVATION OF MITOCHONDRIAL BIOGENESIS AND FUNCTION BY INHIBITION OF PROSTAGLANDIN DEGRADING ENZYME 15-PGDH” (The Board of Trustees of the Leland Stanford Junior …, priority 2020, published 2024).
“Also recorded” adds a separate entry of the source.

Tests used:
aged muscles [1] = assay: unbiased transcriptomic analysis of aged muscles treated with vehicle or SW033291; assay type: in vivo, mice; conditions: FIG. 1A
Text: (§1) FIGS. 1A-1H. Boost in mitochondrial biogenesis and function is triggered by 15-PGDH inhibition in aged muscles. (FIG. 1A) Heatmap of mitochondrial genes. (FIG. 1B) Expression level of Pgc1α by qPCR (n=4 young, n=4 aged veh, n=3 aged SW033291 (SW)). (FIG. 1C) Relative quantification of mitochondrial DNA to nuclear DNA (n=4 per group). (FIG. 1D) Representative images and quantifications of intermyofibrillar (IMF) mitochondria numbers, their size, and myofibrillar width from transmission electron micrographs (TEM) of longitudinal sections of EDL muscles of young, aged vehicle and aged SW (n=3 mice per condition; total mitochondria quantified, n=1,066 young, n=1,350 aged vehicle and n=1,371 aged SW). Scale bar=2 μm. (FIG. 1E) Citrate synthase activity of Gastrocnemius muscles (n=3 young, n=4 aged vehicle and n=4 aged SW). (FIG. 1F) Representative TA cross-section stained for succinate dehydrogenase (SDH) (left). Quantification of SDH mean average intensity per fiber (n=4 mice per condition). (FIG. 1G) Representative images of mitochondrial membrane potential (TMRM staining) in isolated EDL myofibers from young, aged vehicle and SW treated mice (n=4 mice per condition; total number of fibers n=52 young, n=139 aged vehicle and n=89 aged SW). […] Quantification (right) (n=3 aged veh and SW). *P<0.05, **P<0.01, ***P<0.001, ****P<0.0001. […]

[2] = tested on: peroxisome proliferator-activated receptor gamma coactivator 1-alpha (Pgc1α); assay: Pgc1α mRNA level by qPCR in aged muscles; assay type: in vivo, mice; conditions: SW vs vehicle and young, FIG. 1B
Text: as §1

aged muscles [3] = assay: relative quantification of mitochondrial DNA to nuclear DNA in aged muscles; assay type: in vivo, mice; conditions: SW treatment of aged muscles; FIG. 1C
Text: as §1

[4] = tested on: intermyofibrillar (IMF) mitochondria of EDL muscles; assay: transmission electron microscopy (TEM) of Extensor digitorum longus (EDL) muscles; assay type: in vivo, mice
Text: FIGS. 1A-1H. Boost in mitochondrial biogenesis and function is triggered by 15-PGDH inhibition in aged muscles. (FIG. 1A) Heatmap of mitochondrial genes. (FIG. 1B) Expression level of Pgc1α by qPCR (n=4 young, n=4 aged veh, n=3 aged SW033291 (SW)). (FIG. 1C) Relative quantification of mitochondrial DNA to nuclear DNA (n=4 per group). (FIG. 1D) Representative images and quantifications of intermyofibrillar (IMF) mitochondria numbers, their size, and myofibrillar width from transmission electron micrographs (TEM) of longitudinal sections of EDL muscles of young, aged vehicle and aged SW (n=3 mice per condition; total mitochondria quantified, n=1,066 young, n=1,350 aged vehicle and n=1,371 aged SW). Scale bar=2 μm. (FIG. 1E) Citrate synthase activity of Gastrocnemius muscles (n=3 young, n=4 aged vehicle and n=4 aged SW). (FIG. 1F) Representative TA cross-section stained for succinate dehydrogenase (SDH) (left). Quantification of SDH mean average intensity per fiber (n=4 mice per condition). (FIG. 1G) Representative images of mitochondrial membrane potential (TMRM staining) in isolated EDL myofibers from young, aged vehicle and SW treated mice (n=4 mice per condition; total number of fibers n=52 young, n=139 aged vehicle and n=89 aged SW). (FIG. 1H) Immunoblots of muscle lysates from: aged vehicle and SW treated mice together with colchicine, young mice without treatment, young mice treated with colchicine and young mice fasted and treated with colchicine. Quantification (right) (n=3 aged veh and SW). *P<0.05, **P<0.01, ***P<0.001, ****P<0.0001. ANOVA test with Tukey's test (FIG. 1D) or Fisher's LSD (FIGS. 1A, 1F, 1G) for multiple comparisons; Unpaired t-test (FIGS. 1C, 1E, 1H). Means±s.e.m.
(§2) FIGS. 2A-2C. […] (FIG. 2B) Quantification of immunoblot in (FIG. 2A) (n=3 mice per timepoint). (FIG. 2B) Representative images of intermyofibrillar (IMF) mitochondria from transmission electron micrographs (TEM) of longitudinal sections of EDL muscles of young, aged vehicle and aged SW (n=3 mice per condition; total mitochondria quantified, n=1,066 young, n=1,350 aged vehicle and n=1,371 aged SW). […]

citrate synthase = citrate synthase activity in isolated mitochondria of aged muscles; assay type: in vivo, mice; conditions: SW-treated aged muscles compared to controls, FIGS. 1E and 2C
Text: as §1, with “(FIG. 1F) Representative TA cross-section stained for succinate dehydrogenase (SDH) (left).” left out, “condition).” for “condition). (FIG. 1G) Representative images of mitochondrial membrane potential (TMRM staining) in isolated EDL myofibers from young, aged vehicle and SW treated mice (n=4 mice per condition; total number of fibers n=52 young, n=139 aged vehicle and n=89 aged SW).”
as §2

succinate dehydrogenase = succinate dehydrogenase (SDH) staining of TA cross-sections; assay type: in vivo, mice; conditions: SW treated aged muscle; FIG. 1F
Text: as §1

[5] = tested on: myofibers isolated from EDL muscles; assay: mitochondrial membrane potential (TMRM staining) in isolated EDL myofibers; assay type: in vivo; conditions: myofibers from EDL muscles of SW treated aged mice compared to controls; FIG. 1G
Text: as §1

p62 = assay: autophagy flux, western blot of p62 upon colchicine treatment; assay type: in vivo; conditions: muscles of aged mice treated with SW compared to controls; FIG. 1H
Text: as §1

aged muscles [6] = assay: muscle atrophy (cross sectional area, muscle mass) in aged mice; assay type: in vivo; conditions: aged treated with SW compared to vehicle controls
Text: In addition, the morphology of the mitochondria improved. The shift in IMF mitochondrial area from compact and round in young to a larger size with more disorganized morphology in aged tissues was clearly evident, in agreement with reports by others (J. P. Leduc-Gaudet et al., Mitochondrial morphology is altered in atrophied skeletal muscle of aged mice. Oncotarget 6, 17923-17937 (2015); V. Romanello, M. Sandri, Mitochondrial Quality Control and Muscle Mass Maintenance. Front Physiol 6, 422 (2015)) (FIGS. 1D and 2B).

[7] = tested on: cyclic AMP response element binding protein (CREB); assay: immunoblots of muscle lysates for CREB activation after PGE2 i.m. injection; assay type: in vivo, C57BL/6 mice; conditions: young (3 mo.) mice, PGE2 i.m., 0, 30 or 60 minutes; FIG. 2A
Experimental: FIGS. 2A-2C. PGE2 treatment leads to activation of CREB in muscles and 15-PGDH inhibition leads to increased mitochondrial biogenesis and function in aged muscles. (FIG. 2A) Immunoblots of muscle lysates from young (3 mo.) C57BL/6 mice injected with PGE2 i.m. after 0, 30 or 60 minutes. (FIG. 2B) Quantification of immunoblot in (FIG. 2A) (n=3 mice per timepoint). (FIG. 2B) Representative images of intermyofibrillar (IMF) mitochondria from transmission electron micrographs (TEM) of longitudinal sections of EDL muscles of young, aged vehicle and aged SW (n=3 mice per condition; total mitochondria quantified, n=1,066 young, n=1,350 aged vehicle and n=1,371 aged SW). Different magnifications are as shown: 1,500×, 3,000× and 10,000× with […] respectively: 5 μm, 2 μm and 500 nm. (FIG. 2C) Citrate synthase activity of Quadriceps (Quad) muscles (n=13 aged vehicle and n=8 aged SW). *P<0.05, **P<0.01. ANOVA test with Fisher's LSD for multiple comparisons (FIG. 2B); unpaired t-test (FIG. 2C). Means±s.e.m.
To identify downstream signaling pathways through which 15-PGDH inhibition exerts its effects on aged muscles, we performed an unbiased transcriptomic analysis of aged muscles treated with vehicle or SW033291 (SW). […]

CCCC[S+]([O-])c1sc2nc(-c3cccs3)cc(-c3ccccc3)c2c1N (stereo not shown) [SW, 2-(butylsulfinyl)-4-phenyl-6-(thiophen-2-yl)thieno[2,3-b]pyridin-3-amine]
components of mitochondria complexes I, II, IV and V of the electron transport chain (transcriptome) (aged muscles [1]; SW-treated aged muscles): markedly increased | change in aged muscle tissue transcriptome: mitochondrial pathways (oxidative phosphorylation, ATP synthesis) (aged muscles [1]; aged muscles, SW vs vehicle): strong enrichment for mitochondrial pathways | mRNA level of Pgc1α [2]: restored to that seen in young muscles | mitochondrial DNA content relative to nuclear DNA content (aged muscles [3]): increased | number of intermyofibrillar (IMF) mitochondria ([4]; EDL muscles of aged mice after SW treatment, FIGS. 1D and 2B): increase | mitochondrial morphology ([4]; aged EDL muscles, one month of SW treatment, FIG. 1D): restored to a compact mitochondrial morphology resembling that seen in young | myofibril width ([4]; aged treated with SW compared to vehicle controls, FIGS. 1D and 2B): increase | citrate synthase activity (citrate synthase): significantly increased; also recorded: restored to young levels | succinate dehydrogenase activity (succinate dehydrogenase): increased; also recorded: restored to young levels | mitochondrial membrane potential [5]: increase; also recorded: restored to young levels | autophagy flux (p62 upon colchicine treatment) (p62): increased | muscle atrophy (aged muscles [6]): attenuation of muscle atrophy

CCCCC[C@H](O)/C=C/[C@H]1[C@H](O)CC(=O)[C@@H]1C/C=C\CCCC(=O)O [PGE2, Prostaglandin E2]
activation of CREB in skeletal muscles [7]: activates
